Several values for one entry are separate records, joined by “and”; a condition that tells them apart may be missing. Identical values can stand only once. Like-named read-outs stand apart in the source and are kept apart here.
Test system: S. aureus
Assay type: cell-based
Experimental: Drug solutions containing 10% ammonia were prepared in ethanol, and 0.1 ml of each solution was added to 0.9 ml of bacterial culture (50% trypticase soy broth +50% Bovine Calf Serum containing 10^8 cfu S. aureus/ml). After 10 minutes, a 0.1 ml aliquot was removed and added to 0.9 ml drug inactivating media (LTSB). […] The colony counts were then determined.

## Oc1cc(Cl)ccc1Oc1ccc(Cl)cc1Cl [Triclosan, 2,4,4′-trichloro-2′-hydroxydiphenyl ether]
  Growth in Culture: 2 × 10^7 cfu/ml and 1.2 × 10^7 cfu/ml
0.5 percent triclosan alone (Table 4 experiment)
  reduction in growth in culture: 0 log
Solution: Triclosan 0.25%, Silver Sulfadiazine 0%, after 10 minutes, control 2.1 × 10^7
  Growth in Culture: 1.2 × 10^7 cfu/ml
Solution: Triclosan 0.5%, Silver Sulfadiazine 0%, after 10 minutes, control 2.1 × 10^7
  Growth in Culture: 1 × 10^7 cfu/ml
Triclosan alone at 0.25 percent (Table 3 experiment)
  reduction in growth in culture compared to the control: less than a power of 10
Triclosan alone at 0.5 percent (Table 3 experiment)
  reduction in growth in culture compared to the control: less than a power of 10

Reference: patent publication US6843784B2, “Triclosan and silver compound containing medical devices” (priority 1999, dated 2005)
